Results as given in patent US8772490B2, “Optically active diazabicyclooctane derivatives and process for preparing the same” (Meiji Seika Pharma Co., Ltd., priority 2010, dated 2014).

Columns and labels:
AmpC β-lactamase = AmpC β-lactamase (Pseudomonas aeruginosa (strain ATCC 15692 / DSM 22644 / CIP 104116 / JCM 14847 / LMG 12228 / 1C / PRS 101 / PAO1), UniProt P24735); assay type: biochemical
Description: The biological activity of the above-mentioned compounds represented by formulae (H) and (s) can be measured as follows. […] Further, using constitutive AmpC producing Pseudomonas aeruginosa, a combined antimicrobial activity (MIC) was measured when using Piperacillin (PIPC) as an antibiotic and the compound of formula (H) or (s) in combination to check whether or not the antimicrobial activity of PIPC could be restored.
Using P. aeruginosa PAO1 genome as a template, a DNA for encoding an AmpC β-lactamase domain excluding a signal peptide was amplified with PCR. This PCR product was incorporated into pET-28b(+)vector (Merck), introduced into E. coli BL21 (Merck), and, under induction of 1 mM isopropyl-β-D-(−)-thiogalactopyranoside (Nacalai Tesque), cultured overnight at 20° C. to express AmpC. After the bacterial cell was collected. AmpC was purified from the cell extract obtained by ultrasonic treatment, using CM Sepharose Fast Flow (GE Healthcare) and HiTrap Heparin HP (GE Healthcare) at 4° C.

[1] = test system: P. aeruginosa PAO1 variant, which constitutively expresses AmpC; experiment: Combinatorial antibacterial activity: MIC of piperacillin (PIPC) with test compound, agar plate dilution; assay type: cell-based, Pseudomonas aeruginosa; details: for MIC (antimicrobial activity of Piperacillin (PIPC) in combination with the compound): Table 7, PIPC in combination with 4 μg/mL of the compound
Description: The biological activity of the above-mentioned compounds represented by formulae (H) and (s) can be measured as follows. Specifically, an enzyme inhibitory activity (IC50 value) against AmpC enzyme which is a class C β-lactamase was determined using nitrocephin as a substrate to check whether or not the compounds had the inhibitory activity and compare the activities of them. Further, using constitutive AmpC producing Pseudomonas aeruginosa, a combined antimicrobial activity (MIC) was measured when using Piperacillin (PIPC) as an antibiotic and the compound of formula (H) or (s) in combination to check whether or not the antimicrobial activity of PIPC could be restored.
The combinatorial effect of the test compound with a β-lactam agent against bacteria was evaluated using AmpC constitutive expression strain selected from P. aeruginosa PAO1 through agent exposure. Using piperacillin (PIPC, Sigma-Aldrich) as a β-lactam agent, measurement was conducted by agar plate dilution process in which minimal inhibitory concentration (MIC) of PIPC is based on Clinical and Laboratory Standards Institute (CLSI process). That is, an agara plate containing 4 μg/mL (final concentration) of test compound and PIPC at each concentration in Mueller-Hinton agar (Becton, Dickinson and Company) was made, and bacteria cultured overnight in cation-adjusted Muller-Hinton broth (Becton, Dickinson and Company) were adjusted in the same medium so as to have 10^4 CFU/spot and inoculated on a plate containing an agent. This plate containing an agent was cultured overnight at 35° C., and the minimum agent concentration in which no growth of bacteria is observed was determined to be MIC.

Chain of AmpC β-lactamase (P24735 27-397): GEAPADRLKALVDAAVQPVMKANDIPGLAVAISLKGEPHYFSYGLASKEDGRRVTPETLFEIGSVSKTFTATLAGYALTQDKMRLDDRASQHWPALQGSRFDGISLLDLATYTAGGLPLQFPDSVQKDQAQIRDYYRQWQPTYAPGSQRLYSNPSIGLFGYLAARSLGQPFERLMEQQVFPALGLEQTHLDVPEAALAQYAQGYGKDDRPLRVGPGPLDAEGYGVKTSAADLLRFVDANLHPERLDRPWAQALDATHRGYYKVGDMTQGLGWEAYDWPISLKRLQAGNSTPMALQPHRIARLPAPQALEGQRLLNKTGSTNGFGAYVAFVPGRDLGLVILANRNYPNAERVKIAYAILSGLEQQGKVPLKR

| SMILES | β-lactamase enzyme inhibitory activity (in words) (AmpC β-lactamase) | effect of the compound in combination with an antibiotic (in words) [1] | MIC (antimicrobial activity of Piperacillin (PIPC) in combination with the compound) [1] |
| --- | --- | --- | --- |
| NC(=O)[C@@H]1CC[C@@H]2CN1C(=O)N2OS(=O)(=O)[O-].[Na+] [Example 23, (2S,5R)-1,6-Diazabicyclo[3.2.1]octane-2-carboxamide, 7-oxo-6-(sulfoxy)-monosodium salt] | exhibited the activities | exhibited the activities | 4 µg/mL |
| NC(=O)[C@H]1CC[C@H]2CN1C(=O)N2OS(=O)(=O)[O-].[Na+] [Example 24, (2R,5S)-1,6-Diazabicyclo[3.2.1]octane-2-carboxamide, 7-oxo-6-(sulfoxy)-monosodium salt] | exhibited no activity | exhibited no activity | 64 µg/mL |
| C[C@]1(Cn2ccnn2)[C@H](C(=O)[O-])N2C(=O)C[C@H]2S1(=O)=O.[Na+] [TAZ, Tazobactam, reference compound] |  |  | 64 µg/mL |
